# Legend:
# [1] = biological target: T1, δβγ hENaC (Homo sapiens, UniProt P51168+P51170+P51172); assay: two-electrode voltage clamp of oocytes expressing delta beta gamma hENaC; assay type: cell-based
# T1 construct: expressed in transfected cells; host or cells: Xenopus laevis oocytes injected with cRNA of each subunit
# T1 sequence (P51172 1-638 isoform P51172-1): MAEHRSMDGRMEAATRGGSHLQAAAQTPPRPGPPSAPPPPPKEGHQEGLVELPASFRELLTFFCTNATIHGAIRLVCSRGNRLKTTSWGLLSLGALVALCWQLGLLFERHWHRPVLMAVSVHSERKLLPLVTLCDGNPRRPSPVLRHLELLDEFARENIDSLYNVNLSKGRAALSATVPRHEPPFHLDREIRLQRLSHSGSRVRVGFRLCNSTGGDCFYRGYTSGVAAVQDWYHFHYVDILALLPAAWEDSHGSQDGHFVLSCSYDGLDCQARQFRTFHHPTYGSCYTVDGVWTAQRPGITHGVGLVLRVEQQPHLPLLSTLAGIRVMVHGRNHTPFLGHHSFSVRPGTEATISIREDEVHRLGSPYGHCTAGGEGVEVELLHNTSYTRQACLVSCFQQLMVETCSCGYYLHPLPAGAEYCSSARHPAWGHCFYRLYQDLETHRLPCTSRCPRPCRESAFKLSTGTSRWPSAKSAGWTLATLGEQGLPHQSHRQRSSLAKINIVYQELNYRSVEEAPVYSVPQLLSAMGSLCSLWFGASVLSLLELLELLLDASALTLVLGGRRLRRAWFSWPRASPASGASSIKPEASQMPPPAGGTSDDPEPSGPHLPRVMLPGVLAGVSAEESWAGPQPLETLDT
# T1 sequence (P51168 1-640): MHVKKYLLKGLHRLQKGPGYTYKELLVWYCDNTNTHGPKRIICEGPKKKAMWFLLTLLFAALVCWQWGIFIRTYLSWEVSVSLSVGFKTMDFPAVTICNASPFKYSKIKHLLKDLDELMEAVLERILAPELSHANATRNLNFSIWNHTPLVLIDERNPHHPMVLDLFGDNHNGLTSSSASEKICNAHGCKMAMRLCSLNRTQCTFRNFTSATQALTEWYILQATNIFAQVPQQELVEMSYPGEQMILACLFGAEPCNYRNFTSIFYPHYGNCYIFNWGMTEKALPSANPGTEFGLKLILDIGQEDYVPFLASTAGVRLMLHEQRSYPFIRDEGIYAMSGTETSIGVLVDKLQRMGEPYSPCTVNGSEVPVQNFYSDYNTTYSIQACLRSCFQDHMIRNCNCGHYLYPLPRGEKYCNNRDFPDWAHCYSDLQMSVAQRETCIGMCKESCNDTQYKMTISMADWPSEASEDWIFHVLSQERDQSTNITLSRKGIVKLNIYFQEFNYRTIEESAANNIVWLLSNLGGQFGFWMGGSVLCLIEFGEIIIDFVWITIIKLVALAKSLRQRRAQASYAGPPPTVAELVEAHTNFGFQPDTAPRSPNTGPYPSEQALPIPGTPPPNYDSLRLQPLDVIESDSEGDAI
# T1 sequence (P51170 1-649): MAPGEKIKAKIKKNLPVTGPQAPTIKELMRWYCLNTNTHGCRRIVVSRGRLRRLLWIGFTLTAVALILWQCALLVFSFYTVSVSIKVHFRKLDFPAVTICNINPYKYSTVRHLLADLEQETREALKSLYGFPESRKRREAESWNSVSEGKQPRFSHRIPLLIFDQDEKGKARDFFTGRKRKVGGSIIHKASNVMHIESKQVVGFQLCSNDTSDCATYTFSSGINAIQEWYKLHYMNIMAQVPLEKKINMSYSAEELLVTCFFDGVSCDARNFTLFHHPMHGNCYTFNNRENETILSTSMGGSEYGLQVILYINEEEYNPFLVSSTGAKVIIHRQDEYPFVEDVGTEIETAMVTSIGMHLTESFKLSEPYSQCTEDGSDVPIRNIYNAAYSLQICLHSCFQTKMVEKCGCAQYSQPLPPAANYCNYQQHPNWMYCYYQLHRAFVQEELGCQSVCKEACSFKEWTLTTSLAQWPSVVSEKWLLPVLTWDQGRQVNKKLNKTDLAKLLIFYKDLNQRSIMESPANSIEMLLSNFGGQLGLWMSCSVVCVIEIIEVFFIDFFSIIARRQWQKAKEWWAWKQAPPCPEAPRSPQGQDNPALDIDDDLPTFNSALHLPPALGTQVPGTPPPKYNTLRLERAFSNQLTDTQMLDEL
# Description: α, β, and γ hENaC were cloned from kidney cDNA (Origene, Rockville, Md.) into pcDNA3 (Invitrogen, Carlsbad, Calif.) as described previously (Kellenberger, S and Schild, L. Physiol. Rev. 82:735-767(2002). δ hENaC was cloned from testis cDNA (BD Biosciences Clontech, Palo Alto, Calif.). α hENaC sequence was identical to published sequences from lung and kidney (Rossier et al., Annu. Rev. Physiol. 64:877-897 (2002); Alvarez de la Rosa et al., Annu. Rev. Physiol. 62:573-594 (200). (Genbank accession numbers X76180 and L29007). β hENaC sequence was identical to published sequence from lung Bigiani et al. Bigiani et al., Prog. Biophys. Mol. Biol. 83:193-225 (2003). (Genbank accession number X87159) with the exception of a glycine (nucleotide triplet GGC) to alanine (nucleotide triplet GCC) substitution in our clone at amino acid 314. […] (GenBank accession number BC059391). δ hENaC sequence was identical to published sequence from kidney (Shimkets et al., Cell 79: 407414 (1994)) with the exception of a tyrosine (nucleotide triplet TAC) to cysteine (nucleotide triplet TGC) substitution in our clone at amino acid 532.
# ENaC cRNA was generated from linearized plasmids using the mMESSAGE mMACHINE kit with T7 RNA polymerase according to the manufacturer's instructions (Ambion, Austin, Tex.). cRNA quality was checked by denaturing agarose gel electrophoresis and spectrophometric absorbance readings at 260 and 280 nm to ensure that full-length, non-degraded cRNA was generated.
# Female Xenopus laevis South African clawed frogs greater than or equal to 9 cm in length were obtained from NASCO (Fort Atkinson, Wis.). Frogs were anesthetized in 0.15% ethyl-3-aminobenzoate methanesulfonate (Sigma, St. Louis, Mo.) in distilled water and placed on ice. […]
# Unless noted otherwise, ENaC function was measured using the two-electrode voltage clamp technique on an OpusXpress 6000A parallel oocyte voltage clamp system twenty-four hours post-microinjection (Axon Instruments, Union City, Calif.). […]
# [2] = test system: human salty taste perception; assay: effect of amiloride on human salty taste perception; assay type: in vivo; settings: humans; levels ~300-fold above IC50 for αβγ ENaC (~10-fold over IC50 for δβγ ENaC) in oocytes
# [3] = biological target: T2, αβγ hENaC (Homo sapiens, UniProt P37088+P51168+P51170); assay: two-electrode voltage clamp of oocytes expressing alpha beta gamma hENaC; assay type: cell-based
# T2 construct: expressed in transfected cells; host or cells: Xenopus laevis oocytes injected with cRNA of each subunit
# T2 sequence (P37088 1-669): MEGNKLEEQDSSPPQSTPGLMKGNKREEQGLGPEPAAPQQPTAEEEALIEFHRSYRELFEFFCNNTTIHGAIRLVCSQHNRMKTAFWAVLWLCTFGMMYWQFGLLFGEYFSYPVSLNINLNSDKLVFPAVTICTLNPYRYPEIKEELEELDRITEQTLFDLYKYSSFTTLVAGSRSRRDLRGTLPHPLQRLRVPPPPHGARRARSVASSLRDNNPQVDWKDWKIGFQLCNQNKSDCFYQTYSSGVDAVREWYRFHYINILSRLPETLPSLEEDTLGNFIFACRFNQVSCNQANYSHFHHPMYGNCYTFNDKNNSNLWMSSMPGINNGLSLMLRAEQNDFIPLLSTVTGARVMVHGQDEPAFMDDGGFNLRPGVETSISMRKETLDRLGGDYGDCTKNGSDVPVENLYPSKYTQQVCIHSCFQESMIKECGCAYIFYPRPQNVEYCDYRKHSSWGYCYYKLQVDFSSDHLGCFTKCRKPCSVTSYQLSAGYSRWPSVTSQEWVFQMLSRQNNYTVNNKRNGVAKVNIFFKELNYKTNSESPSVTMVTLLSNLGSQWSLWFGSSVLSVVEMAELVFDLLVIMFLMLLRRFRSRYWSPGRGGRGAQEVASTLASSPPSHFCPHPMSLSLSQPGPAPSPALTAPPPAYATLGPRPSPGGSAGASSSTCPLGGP
# T2 sequence (P51168 1-640): T1 sequence (P51168 1-640)
# T2 sequence (P51170 1-649): T1 sequence (P51170 1-649)
# Description: α, β, and γ hENaC were cloned from kidney cDNA (Origene, Rockville, Md.) into pcDNA3 (Invitrogen, Carlsbad, Calif.) as described previously (Kellenberger, S and Schild, L. Physiol. Rev. 82:735-767(2002). δ hENaC was cloned from testis cDNA (BD Biosciences Clontech, Palo Alto, Calif.). α hENaC sequence was identical to published sequences from lung and kidney (Rossier et al., Annu. Rev. Physiol. 64:877-897 (2002); Alvarez de la Rosa et al., Annu. Rev. Physiol. 62:573-594 (200). (Genbank accession numbers X76180 and L29007). β hENaC sequence was identical to published sequence from lung Bigiani et al. Bigiani et al., Prog. […] (Genbank accession number X87159) with the exception of a glycine (nucleotide triplet GGC) to alanine (nucleotide triplet GCC) substitution in our clone at amino acid 314. […]
# ENaC cRNA was generated from linearized plasmids using the mMESSAGE mMACHINE kit with T7 RNA polymerase according to the manufacturer's instructions (Ambion, Austin, Tex.). cRNA quality was checked by denaturing agarose gel electrophoresis and spectrophometric absorbance readings at 260 and 280 nm to ensure that full-length, non-degraded cRNA was generated. […]
# [4] = test system: human salty taste perception; settings: humans; concentrations that specifically modulate ENaC function; cited from earlier work
# [5] = compound concentration not given, N = 5-7 oocytes
compound,measurement,setting,value
N=C(N)NC(=O)c1nc(Cl)c(N)nc1N [amiloride],inhibition at 10 µM,[1],> 90%
same,IC50,"[1]; Xenopus oocytes, n=10, mean±SEM",2700 ± 300 nM
same,effect on perceived salt intensity,[2],did not elicit a significant effect
same,inhibition at 1 µM,[3],> 90%
same,reduction of intensity of sodium chloride taste,[4],15-20%
Choline C1,% Enhance δβγ,[1]; [5],52 +/− 5%
same,% Enhance αβγ,[3]; [5],53 +/− 17%

# — patent US10078087B2, “Assays and enhancers of the human delta ENaC sodium channel” (SENOMYX, INC., priority 2001, dated 2018)
